Data taken from patent US12209080B2, “Polymorphic forms of kinase inhibitor compound, pharmaceutical composition containing same, preparation method therefor and use thereof” (EQUINOX SCIENCES, LLC, priority 2016, dated 2025).
Converted amounts (≈) assume the structure as drawn. Where two headings read alike, the source gives them in different places.

Key:
[1] = Tissue accumulation experiment in tumor-bearing mice; type: in vivo, BALB/cA nude mice; design: content in Tumor / content in Liver / content in Kidney / content in Heart / content in Lung / content in Muscle / content in Brain: unit not given here; details: 40 mg/kg for 21 days (crystalline form 1 twice a day, sunitinib once a day); 4 hours after administration on day 22
Procedure: Human colon cancer H-29 cells were implanted into the armpits of BALB/cA nude mice. Seven days after the implantation of H-29 cells, 8 female mice were administered with the crystalline form 1 (twice a day) at 40 mg/kg or sunitinib at 40 mg/kg (once a day). The drug administration was continuous for 21 days. Plasma, tissue and tumor samples were collected for analysis 4 hours after the administration on the 22nd day morning.

[2] = Dynamic vapor sorption (DVS) / moisture absorption; type: physicochemical
Procedure: (4) Dynamic Water Adsorption (DVS), TA Instruments Q5000 TGA; controlling software: Thermal Advantage; analysis software: Universal Analysis; sample plate: platinum crucible; amount of the sample to be detected: 1-10 mg; protective gas: nitrogen; gas flow fate: 10 mL/min; detection method: equilibration at 25° C., humidity: 0%, isothermal treatment: 90 min, weight change to be detected: from 0% RH to 80% RH;
(§1) The moisture content, solubility and dissolution rate of the crystalline forms 1 and 2 were detected using the methods described above. The results are shown in Table 21, which indicate that the solubility, dissolution, and moisture content (total pharmaceutical properties) of the crystalline form 1 are higher than that of the crystalline form 2. Moreover, the crystalline forms 1 and 2 have the highest solubility in methanol.

[3] = Stability of the crystalline forms (HPLC, XRD, DSC); type: physicochemical; details: for HPLC Maximum single impurity %: retention time (min) in brackets; for crystalline form and melting point by XRD and DSC: sealed 80° C. 24 hours, open dish 25° C./60% RH and 40° C./75% RH for 7 days
Procedure: Experimental conditions: the samples were sealed and placed at 80° C. for 24 hours, and then placed in an open dish at 25° C./60% RH (relative humidity) and 40° C./75% RH for 7 days. Detection method: HPLC (only for the starting samples and samples placed at 80° C. for 24 hours), XRD, DSC.
In addition, the long-term stabilities of the crystalline form 1 for 12 months, 24 months, 36 months, and 48 months at 25° C./60% RH were also investigated.

[4] = Thermodynamic stability experiment in solvents at 60° C. (XRD); type: physicochemical; details: one day
Procedure: The crystalline form 1, crystalline form 2, crystalline form 3 and crystalline form 7 of the compound of formula I were mixed with acetone, ethyl acetate, methanol, water and tetrahydrofuran respectively, and then kept at 60° C. for one day for the investigation of the thermodynamic stability of each crystalline form. Insoluble solid was recovered by filtration and analyzed by XRD. Analysis conditions: Shimadzu XRD-6000, CuK source (1.54056 A) 40 kV, 30 mA; detection angle: 5-50°, speed: 5°/min.

[5] = Solubility determination in water by HPLC; type: physicochemical; details: suspension in water, 25° C.
Procedure: HPLC detection was performed using the crystalline form 1 as a standard, with its concentration of 204.2 μg*mL^−1 and its content set as 100%, and the detection was performed 7 times. The average peak area was 159.691 mAU*min (retention time was 7.4 min).

[6] = Solubility of crystalline forms 1 and 2 in various media; type: physicochemical
Text: as §1

[7] = Dissolution rate of crystalline forms 1 and 2; type: physicochemical
Text: as §1

[8] = Pharmacokinetic experiment, oral administration; type: in vivo, Sprague Dawley rats; details: rat, 10 mg/kg, suspension in 0.5% CMC
Procedure: Twelve Sprague Dawley rats with weight of 230-250 g were randomly divided into 2 groups, wherein each group consisted of 3 males and 3 females. Crystalline forms 1 and 2 were separately prepared as suspensions in 0.5% carboxymethylcellulose (CMC). The rats were fasted for 12 hours with free access to water and then orally administered at a dose of 10 mg/kg. Blood samples (0.2-0.3 ml) before and after 15, 30, 60, 120, 240, 360, 480, 720, 1440 minutes of the oral administration were collected in heparin anticoagulation tubes, which were then centrifuged to obtain plasma. The plasma was stored at −20° C., followed by analysis using API 4000 MS in conjunction with a HPLC unit. The pharmacokinetic parameters Cmax and AUC were calculated according to the determined plasma concentrations and summarized in Table 22.

[9] = acetone, ethyl acetate, methanol or water, conversion not complete in methanol

CCN(CC)CCNC(=O)c1c(C)[nH]c(/C=C2\C(=O)Nc3ccc(F)cc32)c1C [Sunitinib, reference compound]
content in Brain [1]: 333.9 | content in Heart [1]: 3,881.2 | content in Kidney [1]: 14,852.0 | content in Liver [1]: 14,816.6 | content in Lung [1]: 15,713.5 | content in Muscle [1]: 1,483.2 | content in Plasma [1]: 261.3 | content in Tumor [1]: 27,137.2

Cc1[nH]c(/C=C2\C(=O)Nc3ccc(F)cc32)c(C)c1C(=O)N[C@H]1CCN(C(=O)N(C)C)C1 [crystalline form 2, 5-[5-fluoro-2-oxo-1,2-dihydro-indole-(3Z)-ylidenemethyl]-2,4-dimethyl-1H-pyrrole-3-carboxylic acid ((S)-1-dimethylcarbamoyl-pyrrolidin-3-yl)-amide]
Moisture absorption ([2]; RH 50%): 0.064% | Moisture absorption ([2]; RH 80%): 0.112% | HPLC Purity % ([3]; 0 day (starting sample)): 97.76% | HPLC Maximum single impurity % ([3]; 0 day (starting sample)): 2.15 (4.73) % | crystalline form and melting point by XRD and DSC [3]: substantially unchanged | HPLC Purity % ([3]; sealed, 80° C./24 h): 98.95% | HPLC Maximum single impurity % ([3]; sealed, 80° C./24 h): 0.96 (4.73) % | crystalline form recovered (XRD) [4, 9]: converted to crystalline form 2 | crystalline form recovered (XRD) ([4]; tetrahydrofuran (THF)): to crystalline form 3 | concentration (solubility in water) ([5]; 0.5 hours): 0.19 µg/mL | concentration (solubility in water) ([5]; 4 hours): 0.26 µg/mL | Solubility ([6]; 1% Tween 80): 20 µg/mL (≈ 45.5 µM) | Solubility ([6]; 1% sodium lauryl sulfate): 580 µg/mL (≈ 1320 µM) | Solubility ([6]; 2% sodium lauryl sulfate): 950 µg/mL (≈ 2160 µM) | Solubility ([6]; PEG 400, organic solvent or mixture, thermodynamic from solid, PEG 400, read-out: Solubility): 2670 µg/mL (≈ 6080 µM) | Solubility ([6]; acetonitrile): 270 µg/mL (≈ 614 µM) | Solubility ([6]; aqueous solution with pH of 1.0-7.5): 0.0048 to 0.04 µg/mL | Solubility ([6]; ethanol, organic solvent or mixture, thermodynamic from solid, ethanol, read-out: Solubility): 1940 µg/mL (≈ 4410 µM) | Solubility ([6]; glycerin): 120 µg/mL (≈ 273 µM) | Solubility ([6]; methanol): 3500 µg/mL (≈ 7960 µM) | Internal dissolution rate [7]: 0.0062 mg/(min · cm^2) | AUC(0-t) ([8]; female, Sprague Dawley, plasma, po, female 1, read-out: AUC(0-t)): 4340 ng·h/mL | Cmax ([8]; female, Sprague Dawley, plasma, po, female 1, read-out: Cmax): 317 ng/mL | AUC(0-t) ([8]; oral 10 mg/kg, average value): 3320.9 ng·h/mL | Cmax ([8]; oral 10 mg/kg, average value): 313.8 ng/mL | AUC(0-t) ([8]; oral 10 mg/kg, female 2): 3899.2 ng·h/mL | Cmax ([8]; oral 10 mg/kg, female 2): 451.4 ng/mL | AUC(0-t) ([8]; oral 10 mg/kg, female 3): 7850.6 ng·h/mL | Cmax ([8]; oral 10 mg/kg, female 3): 614.6 ng/mL | AUC(0-t) ([8]; oral 10 mg/kg, male 1): 1557.1 ng·h/mL | Cmax ([8]; oral 10 mg/kg, male 1): 204.4 ng/mL | AUC(0-t) ([8]; oral 10 mg/kg, male 2): 925.0 ng·h/mL | Cmax ([8]; oral 10 mg/kg, male 2): 114.7 ng/mL | AUC(0-t) ([8]; oral 10 mg/kg, male 3): 1349.3 ng·h/mL | Cmax ([8]; oral 10 mg/kg, male 3): 180.4 ng/mL

Cc1[nH]c(/C=C2\C(=O)Nc3ccc(F)cc32)c(C)c1C(=O)N[C@H]1CCN(C(=O)N(C)C)C1 [crystalline form 3, 5-[5-fluoro-2-oxo-1,2-dihydro-indole-(3Z)-ylidenemethyl]-2,4-dimethyl-1H-pyrrole-3-carboxylic acid ((S)-1-dimethylcarbamoyl-pyrrolidin-3-yl)-amide]
HPLC Purity % ([3]; 0 day (starting sample)): 99.14% | HPLC Maximum single impurity % ([3]; 0 day (starting sample)): 0.76 (4.73) % | crystalline form and melting point by XRD and DSC [3]: substantially unchanged | HPLC Purity % ([3]; sealed, 80° C./24 h): 98.32% | HPLC Maximum single impurity % ([3]; sealed, 80° C./24 h): 1.58 (4.73) % | crystalline form recovered (XRD) [4, 9]: converted to crystalline form 2 | crystalline form recovered (XRD) ([4]; tetrahydrofuran (THF)): to crystalline form 3 | concentration (solubility in water) ([5]; 0.5 hours): 0.58 µg/mL | concentration (solubility in water) ([5]; 4 hours): 0.77 µg/mL

Cc1[nH]c(/C=C2\C(=O)Nc3ccc(F)cc32)c(C)c1C(=O)N[C@H]1CCN(C(=O)N(C)C)C1 [crystalline form 5, 5-[5-fluoro-2-oxo-1,2-dihydro-indole-(3Z)-ylidenemethyl]-2,4-dimethyl-1H-pyrrole-3-carboxylic acid ((S)-1-dimethylcarbamoyl-pyrrolidin-3-yl)-amide]
HPLC Purity % ([3]; 0 day (starting sample)): 99.86% | HPLC Maximum single impurity % ([3]; 0 day (starting sample)): 0.05 (8.82) % | crystalline form and melting point by XRD and DSC [3]: substantially unchanged | HPLC Purity % ([3]; sealed, 80° C./24 h): 98.80% | HPLC Maximum single impurity % ([3]; sealed, 80° C./24 h): 1.10 (4.73) % | concentration (solubility in water) ([5]; 0.5 hours): 1.66 µg/mL | concentration (solubility in water) ([5]; 4 hours): 0.42 µg/mL

Cc1[nH]c(/C=C2\C(=O)Nc3ccc(F)cc32)c(C)c1C(=O)N[C@H]1CCN(C(=O)N(C)C)C1 [crystalline form 6, 5-[5-fluoro-2-oxo-1,2-dihydro-indole-(3Z)-ylidenemethyl]-2,4-dimethyl-1H-pyrrole-3-carboxylic acid ((S)-1-dimethylcarbamoyl-pyrrolidin-3-yl)-amide]
HPLC Purity % ([3]; 0 day (starting sample)): 99.09% | HPLC Maximum single impurity % ([3]; 0 day (starting sample)): 0.80 (4.73) % | crystalline form and melting point by XRD and DSC [3]: substantially unchanged | HPLC Purity % ([3]; sealed, 80° C./24 h): 99.12% | HPLC Maximum single impurity % ([3]; sealed, 80° C./24 h): 0.78 (4.73) % | concentration (solubility in water) ([5]; 0.5 hours): 0.29 µg/mL | concentration (solubility in water) ([5]; 4 hours): 0.37 µg/mL

Cc1[nH]c(/C=C2\C(=O)Nc3ccc(F)cc32)c(C)c1C(=O)N[C@H]1CCN(C(=O)N(C)C)C1 [crystalline form 7, 5-[5-fluoro-2-oxo-1,2-dihydro-indole-(3Z)-ylidenemethyl]-2,4-dimethyl-1H-pyrrole-3-carboxylic acid ((S)-1-dimethylcarbamoyl-pyrrolidin-3-yl)-amide]
HPLC Purity % ([3]; 0 day (starting sample)): 99.28% | HPLC Maximum single impurity % ([3]; 0 day (starting sample)): 0.58 (4.73) % | crystalline form and melting point by XRD and DSC [3]: substantially unchanged | HPLC Purity % ([3]; sealed, 80° C./24 h): 98.70% | HPLC Maximum single impurity % ([3]; sealed, 80° C./24 h): 1.19 (4.73) % | crystalline form recovered (XRD) [4, 9]: converted to crystalline form 2 | crystalline form recovered (XRD) ([4]; tetrahydrofuran (THF)): to crystalline form 3 | concentration (solubility in water) ([5]; 0.5 hours): 0.52 µg/mL | concentration (solubility in water) ([5]; 4 hours): 0.61 µg/mL
